Tested on: 677734-321-R-J1-PDC complex spheroid viability
Assay: Anticancer human tumor 677734-321-R-J1-PDC patient-derived soft tissue sarcoma cell line growth inhibition [POLQ]
Settings: for IC50: curve of first compound; for viability, T/C: stronger effect = lower value
Outline: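 PDC + HUVEC + MSC complex spheroids; POLQ inhibitors ± partner drugs; top conc. at/near clinical Cmax, else 10 microM (SN-38 1 microM), half-log dilutions; 37 degrees C, 5% CO2.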

[1] = second compound 0.0316 µM, first compound 0.0316 µM
[2] = second compound 0.0316 µM, first compound 0.1 µM
[3] = second compound 0.0316 µM, first compound 0.316 µM
[4] = second compound 0.0316 µM, first compound 1 µM
[5] = second compound 0.0316 µM, first compound 3.16 µM
[6] = second compound 0.0316 µM, first compound 10 µM
[7] = second compound 0.1 µM, first compound 0.0316 µM
[8] = second compound 0.1 µM, first compound 0.1 µM
[9] = second compound 0.1 µM, first compound 0.316 µM
[10] = second compound 0.1 µM, first compound 1 µM
[11] = second compound 0.1 µM, first compound 3.16 µM
[12] = second compound 0.1 µM, first compound 10 µM
[13] = second compound 0.316 µM, first compound 0.0316 µM
[14] = second compound 0.316 µM, first compound 0.1 µM
[15] = second compound 0.316 µM, first compound 0.316 µM
[16] = second compound 0.316 µM, first compound 1 µM
[17] = second compound 0.316 µM, first compound 3.16 µM
[18] = second compound 0.316 µM, first compound 10 µM
[19] = second compound 1 µM, first compound 0.0316 µM
[20] = second compound 1 µM, first compound 0.1 µM
[21] = second compound 1 µM, first compound 0.316 µM
[22] = second compound 1 µM, first compound 1 µM
[23] = second compound 1 µM, first compound 3.16 µM
[24] = second compound 1 µM, first compound 10 µM
[25] = second compound 3.16 µM, first compound 0.0316 µM
[26] = second compound 3.16 µM, first compound 0.1 µM
[27] = second compound 3.16 µM, first compound 0.316 µM
[28] = second compound 3.16 µM, first compound 1 µM
[29] = second compound 3.16 µM, first compound 3.16 µM
[30] = second compound 3.16 µM, first compound 10 µM
[31] = second compound 10 µM, first compound 0.0316 µM
[32] = second compound 10 µM, first compound 0.1 µM
[33] = second compound 10 µM, first compound 0.316 µM
[34] = second compound 10 µM, first compound 1 µM
[35] = second compound 10 µM, first compound 3.16 µM
[36] = second compound 10 µM, first compound 10 µM
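Note: spheroids exposed to compounds for one week.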
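Throughout, for viability, T/C: 100% = vehicle DMSO treated spheroids.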

In the case of `COc1cccc2c1C(=O)c1c(O)c3c(c(O)c1C2=O)CC(O)(C(=O)CO)CC3OC1CC(N)C(O)C(C)O1` (stereo unspecified) + COC1C(OC(N)=O)C(O)C(Oc2ccc3c(O)c(NC(=O)c4ccc(O)c(CC=C(C)C)c4)c(=O)oc3c2C)OC1(C)C, the IC50 (second compound 0.0316 µM) is reported as 0.104 µM, the IC50 (second compound 0.1 µM) is reported as 0.138 µM and the IC50 (second compound 0.316 µM) is reported as 0.133 µM. For the same compound, the IC50 (second compound 1 µM) was 0.148 µM, the IC50 (second compound 3.16 µM) was 0.13 µM and the IC50 (second compound 10 µM) was 0.139 µM. For the same compound, the viability, T/C [1] was 84.4%, the viability, T/C [2] was 51.5% and the viability, T/C [3] was 7.79%. The viability, T/C [4] was 3.03%, the viability, T/C [5] was 2.77% and the viability, T/C [6] was 2.45%. For the same compound, the viability, T/C [7] was 77.6%, the viability, T/C [8] was 66.7% and the viability, T/C [9] was 7.11%. For the same compound, the viability, T/C [10] was 0.57%, the viability, T/C [11] was 1.78% and the viability, T/C [12] was 3.77%. The viability, T/C [13] was 60.4%, the viability, T/C [14] was 67% and the viability, T/C [15] was 7.66%. It also gave a viability, T/C [16] of 0.61%, a viability, T/C [17] of 2.67% and a viability, T/C [18] of 3.36%. The viability, T/C [19] was 83.5%, the viability, T/C [20] was 70.1% and the viability, T/C [21] was 11.2%. The viability, T/C [22] was 0.59%, the viability, T/C [23] was 1.98% and the viability, T/C [24] was 2.55%. The viability, T/C [25] was 74.5%, the viability, T/C [26] was 62.4% and the viability, T/C [27] was 8.7%. For the same compound, the viability, T/C [28] was 0.64%, the viability, T/C [29] was 2.76% and the viability, T/C [30] was 2.4%. The viability, T/C [31] was 68.8%, the viability, T/C [32] was 67.1% and the viability, T/C [33] was 7.17%. It also gave a viability, T/C [34] of 0.88%, a viability, T/C [35] of 3.28% and a viability, T/C [36] of 1.86%.

`CC1COCCN1c1cc(C2(S(C)(=N)=O)CC2)nc(-c2ccnc3[nH]ccc23)n1` (stereo unspecified) + Cc1cccc(N(C)C(=O)C2C(O)CCN2c2nc(C)cc(C(F)(F)F)c2C#N)c1 gave an IC50 (second compound 0.0316 µM) of 4.03 µM, an IC50 (second compound 0.1 µM) of 3.86 µM and an IC50 (second compound 0.316 µM) of 3.91 µM. The IC50 (second compound 1 µM) was 3.79 µM, the IC50 (second compound 3.16 µM) was 3.1 µM and the IC50 (second compound 10 µM) was 3.03 µM. It also gave a viability, T/C [1] of 106%, a viability, T/C [2] of 105% and a viability, T/C [3] of 104%. For the same compound, the viability, T/C [4] was 91%, the viability, T/C [5] was 57% and the viability, T/C [6] was 24.2%. The viability, T/C [7] was 106%, the viability, T/C [8] was 110% and the viability, T/C [9] was 96.5%. The viability, T/C [10] was 92.9%, the viability, T/C [11] was 53.6% and the viability, T/C [12] was 28.6%. The viability, T/C [13] was 117%, the viability, T/C [14] was 108% and the viability, T/C [15] was 100%. For the same compound, the viability, T/C [16] was 90.4%, the viability, T/C [17] was 54.3% and the viability, T/C [18] was 22%. It also gave a viability, T/C [19] of 109%, a viability, T/C [20] of 102% and a viability, T/C [21] of 98.5%. It also gave a viability, T/C [22] of 98.3%, a viability, T/C [23] of 54.5% and a viability, T/C [24] of 25.4%. For the same compound, the viability, T/C [25] was 104%, the viability, T/C [26] was 103% and the viability, T/C [27] was 99.7%. It also gave a viability, T/C [28] of 90.6%, a viability, T/C [29] of 49.2% and a viability, T/C [30] of 37.8%. For the same compound, the viability, T/C [31] was 102%, the viability, T/C [32] was 96.5% and the viability, T/C [33] was 93.1%. The viability, T/C [34] was 87%, the viability, T/C [35] was 48.3% and the viability, T/C [36] was 26%.

With `C#Cc1c(F)ccc2cc(O)cc(-c3ncc4c(N5CC6CCC(C5)N6)nc(OCC56CCCN5CC(F)C6)nc4c3F)c12` (stereo unspecified) + Nc1ccc(C#CCN(C(=O)Cc2ncc(C(F)(F)F)cc2C(F)(F)F)c2ccc(F)cc2)nn1 the IC50 (second compound 0.0316 µM) was > 10 µM, the IC50 (second compound 0.1 µM) was > 10 µM and the IC50 (second compound 0.316 µM) was > 10 µM. The IC50 (second compound 1 µM) was > 10 µM, the IC50 (second compound 3.16 µM) was > 10 µM and the IC50 (second compound 10 µM) was > 10 µM. It also gave a viability, T/C [1] of 104%, a viability, T/C [2] of 117% and a viability, T/C [3] of 115%. For the same compound, the viability, T/C [4] was 117%, the viability, T/C [5] was 115% and the viability, T/C [6] was 98.7%. It also gave a viability, T/C [7] of 106%, a viability, T/C [8] of 116% and a viability, T/C [9] of 112%. It also gave a viability, T/C [10] of 118%, a viability, T/C [11] of 98.4% and a viability, T/C [12] of 79.6%. For the same compound, the viability, T/C [13] was 113%, the viability, T/C [14] was 124% and the viability, T/C [15] was 96.9%. For the same compound, the viability, T/C [16] was 110%, the viability, T/C [17] was 103% and the viability, T/C [18] was 103%. For the same compound, the viability, T/C [19] was 105%, the viability, T/C [20] was 104% and the viability, T/C [21] was 109%. It also gave a viability, T/C [22] of 114%, a viability, T/C [23] of 119% and a viability, T/C [24] of 94.1%. It also gave a viability, T/C [25] of 114%, a viability, T/C [26] of 98% and a viability, T/C [27] of 122%. The viability, T/C [28] was 111%, the viability, T/C [29] was 96.8% and the viability, T/C [30] was 96.5%. It also gave a viability, T/C [31] of 107%, a viability, T/C [32] of 99.8% and a viability, T/C [33] of 112%. The viability, T/C [34] was 108%, the viability, T/C [35] was 94.8% and the viability, T/C [36] was 88.8%.

From PubChem BioAssay AID1963842 (Molecular Pharmacology Branch, DTP, NCI, 2024)
